# Experimental data as given in publication PMC8954220, “Sparsomycin Exhibits Potent Antiplasmodial Activity In Vitro and In Vivo” (Pharmaceutics, 2022).
# Where two headings read alike, the source gives them in different places.
# How the values were obtained:
# [1] = test system: P. falciparum 3D7; test: SYBR Green I-based fluorescence in vitro growth inhibition assay; type: cell-based, Plasmodium falciparum; settings: for IC50: Plasmodium falciparum, read-out: IC50 P. falciparum 3D7
# Experimental: (§1) P. falciparum strains 3D7 and K1 were cultivated in 2% washed human O-positive erythrocytes (supplied by Japanese Red Cross Society, Hokkaido, Japan) using a multi-gas incubator (37 °C, 5% CO2 and 5% O2).
# (§2) Briefly, test compounds were diluted in complete medium to eight desired concentrations (2-fold serial dilution). […] Next, 50 μL of synchronous parasites at 0.5% parasitemia and 2% hematocrit was seeded in a 96-well plate containing 50 μL of test compounds. The 96-well plate was incubated for 72 h at 37 °C, 5% CO2 and 5% O2. Next, 100 μL of lysis buffer containing 0.02% (v/v) SYBR Green I was added to each well and mixed and then the 96-well plate was incubated at room temperature for 2 h in the dark. […] Erythrocytes treated with 1% DMSO were used as a negative control and wells containing only test compounds and erythrocytes were used to correct background signals. In at least three independent trials, the inhibition assay was performed in quadruplicate for each concentration.
# [2] = test system: P. falciparum K1; test: as above; type: cell-based, Plasmodium falciparum; settings: for IC50: Plasmodium falciparum, read-out: IC50 P. falciparum K1
# Experimental: as §1, §2
# [3] = Erythrocyte hemolysis assay; type: cell-based; settings: human, 3 h at 37 °C, mean ± SD, read-out: RBC Hemolysis Rate (%) at 100 μM
# Experimental: An erythrocyte hemolysis assay was performed as previously described [21]. Briefly, 100 μL of each compound (final concentration, 100 μM) in 1× phosphate-buffered saline (PBS) was seeded in a 96-well plate and 100 μL of a 3% erythrocyte suspension in PBS was added. The plate was incubated for 3 h at 37 °C, 5% CO2 and 5% O2 and then centrifuged at 1300× g for 5 min. Subsequently, 100 μL of the supernatant of each mixture was transferred to a new 96-well plate and the absorbance was recorded at 540 nm. […] The erythrocyte hemolysis rate was calculated using the following formula: hemolysis rate = ([Asample − Anegative control]/[Apositive control − Anegative control] × 100), where A is absorbance [21]. The experiments were performed in triplicate and repeated three times independently.
# [4] = In vitro cytotoxicity, cell viability assay (CCK-8); settings: human, human foreskin fibroblasts (HFFs)
# Experimental: A cell viability assay was used to evaluate the cytotoxic action of Sm as described previously [18]. Briefly, a 100 μL cell suspension was seeded in a 96-well plate at a concentration of 1 × 10^5 cells/mL in DMEM containing 10% FBS and incubated for 48 h at 37 °C and 5% CO2. Next, 2-fold dilutions (total of eight concentrations) of test compounds in DMEM were added in quadruplicate to each well and incubated for an additional 72 h.
# Data were analyzed using GraphPad Prism 8 (GraphPad Software, Inc., La Jolla, CA, USA). IC50 or CC50 values were calculated from three independent experiments using a non-linear regression fit to logarithm concentration value of the compound versus inhibition percentage of parasite or cell growth, respectively.
# [5] = test system: P. berghei ANKA; test: Complicated rodent malaria model, survival (Peters' 4-day test or 7-day regimen); type: in vivo, C57BL/6 J mice; settings: up to 25 dpi
# Experimental: Male C57BL/6 J mice (8 weeks old with body weight of 20–25 g; six mice per group) were purchased from Japan CLEA (Tokyo, Japan). The mice were allowed free access to water and food (CLEA Rodent Diet CE-2; Japan CLEA, Tokyo, Japan). The room temperature (24 °C), relative humidity (50%) and lighting (light from 8 a.m. to 8 p.m.) were adjusted and controlled. P. yoelii 17XNL and P. berghei ANKA were recovered from frozen packed erythrocyte stocks via passage in mice following intraperitoneal (i.p.) injection. Challenge experiments were performed with i.p. injections of 1 × 10^7 fresh infected erythrocytes from donor mice (designated as 0 days post-infection (dpi)). Approximately 2 h after the injection, 2 μL of blood was collected from the tip of the mice’s tail and the parasitemia levels were checked using Giemsa-stained thin blood smears. When the parasitemia level reached 1%, the infected mice were intraperitoneally treated with vehicle (1 × PBS) or Sm at a dose of 100 or 300 μg/kg (modified from reported IC50 in Ref. [22]) once daily for 7 days (0–6 dpi; modified Peters’ test) for P. yoelii 17XNL and 300 μg/kg once daily for 4 (0–3 dpi; Peters’ 4-day test) or 7 days (0–6 dpi, [23]) for P. berghei ANKA. The survival and clinical signs of mice were monitored daily after infection. […]
# [6] = test system: P. yoelii 17XNL; test: Uncomplicated rodent malaria model, 7-day treatment (modified Peters' test); type: in vivo, C57BL/6 J mice
# Experimental: Male C57BL/6 J mice (8 weeks old with body weight of 20–25 g; six mice per group) were purchased from Japan CLEA (Tokyo, Japan). The mice were allowed free access to water and food (CLEA Rodent Diet CE-2; Japan CLEA, Tokyo, Japan). The room temperature (24 °C), relative humidity (50%) and lighting (light from 8 a.m. to 8 p.m.) were adjusted and controlled. P. yoelii 17XNL and P. berghei ANKA were recovered from frozen packed erythrocyte stocks via passage in mice following intraperitoneal (i.p.) injection. Challenge experiments were performed with i.p. injections of 1 × 10^7 fresh infected erythrocytes from donor mice (designated as 0 days post-infection (dpi)). Approximately 2 h after the injection, 2 μL of blood was collected from the tip of the mice’s tail and the parasitemia levels were checked using Giemsa-stained thin blood smears. When the parasitemia level reached 1%, the infected mice were intraperitoneally treated with vehicle (1 × PBS) or Sm at a dose of 100 or 300 μg/kg (modified from reported IC50 in Ref. [22]) once daily for 7 days (0–6 dpi; modified Peters’ test) for P. yoelii 17XNL and 300 μg/kg once daily for 4 (0–3 dpi; Peters’ 4-day test) or 7 days (0–6 dpi, [23]) for P. berghei ANKA. The survival and clinical signs of mice were monitored daily after infection. Mice with high clinical signs (arched back, immobility, >20% body weight loss and pain sign) were euthanized immediately. Parasitemia in P. yoelii 17XNL-infected mice was observed daily using Giemsa-stained thin blood smears (up to 30 dpi).
# A p-value of <0.05 was considered statistically significant and is shown as an asterisk or a symbol, defined in each table/figure legend together with the name of the test used.
# [7] = test system: patients (with advanced carcinoma); parameters: method as in PMID 5928140; settings: daily doses; after 13 days (total dose 0.24 mg/kg) and 15 days (total dose 0.15 mg/kg); cited from earlier work
# [8] = test system: retinas of animals; parameters: method as in PMID 3310108; settings: animals treated with toxic doses; cited from earlier work
# [9] = test system: mice; settings: i.p. administration; cited from earlier work
# [10] = test system: P. falciparum 3D7; test: Microscopic analysis of parasitemia and morphology (Giemsa-stained thin blood smears); type: cell-based, Plasmodium falciparum
# Experimental: The parasites were tightly synchronized using a two-step sorbitol treatment protocol and used at the ring stage with 0.5% parasitemia and 2% hematocrit. Sm (50 and 10 nM) in complete medium and 1% DMSO in complete medium were used as the treated and untreated groups, respectively, in this assay. Subsequently, the Giemsa-stained thin blood smears of each treatment group were prepared after 1, 24, 48, or 72 h of incubation. After 72 h, incubation was continued after changing the medium in either the presence (unwashed group) or absence (washed group) of Sm for up to 144 h. Subsequently, the Giemsa-stained thin blood smears of each treatment group were prepared at 96, 120 and 144 h. The blood smears were observed using a BZ-900 all-in-one microscope (Keyence BioRevo, Tokyo, Japan). The parasitemia levels were determined by enumerating the number of infected erythrocytes in relation to uninfected erythrocytes (a minimum of 500 cells were counted). The assay was performed in triplicate for each concentration and time point.
structure (smiles),measurement,setting,value
"C[C@@H]1CC[C@H]2[C@@H](C)C(=O)O[C@@H]3O[C@@]4(C)CC[C@@H]1[C@]32OO4 [Artemisinin, artemisinin, reference compound]",IC50,"[1]; 3D7, 72 h exposure, mean ± SD of three independent experiments",13.2 ± 2.66 nM
same,IC50,"[2]; K1, 72 h exposure, mean ± SD of three independent experiments",19.9 ± 1.51 nM
"CSC[S@+]([O-])C[C@H](CO)NC(=O)/C=C/c1c(C)[nH]c(=O)[nH]c1=O [Sparsomycin, sparsomycin]","hemolysis at 3 h, 100 µM",[3],1.04 ± 0.23%
same,CC50 at 72 h,[4],1140 ± 30 nM
same,Prolongation of survival,"[5]; 300 μg/kg i.p. once daily for 4 days, significant (p < 0.05)",33.33%
same,Prolongation of survival,"[5]; 300 μg/kg i.p. once daily for 7 days, statistically insignificant (p > 0.05)",33.33%
same,IC50,"[1]; 3D7, 72 h",12.1 ± 4.41 nM
same,SI for P. falciparum 3D7,"[1]; selectivity index, ratio between IC50 (3D7) and CC50 (HFF)",94.45
same,IC50,"[2]; K1, 72 h",25.4 ± 8.15 nM
same,Resistance Index,[2]; ratio between the IC50 values of P. falciparum K1 and 3D7,2.1
same,SI for P. falciparum K1,"[2]; selectivity index, ratio between IC50 (K1) and CC50 (HFF)",44.83
same,Parasitemia levels versus control,[6]; 100 μg/kg i.p. once daily for 7 days,did not significantly alter
same,Parasitemia versus control,[6]; 300 μg/kg i.p. once daily for 7 days,significantly reduced
same,Parasitemia peak,"[6]; 300 μg/kg i.p. once daily for 7 days, peak at 11 dpi, control 40.13% (12 dpi)",18.85%
same,Mortality,"[6]; 100 or 300 μg/kg i.p. once daily for 7 days, up to 30 dpi",No mortality
same,Patients developing ring scotoma (Sm-related retinopathy),[7],two out of five patients
same,Pathological changes in the retinas,[8],no observable pathological changes
same,LD50,[9],170 to 380 μg/kg per injection
same,Parasite morphology,[10]; 50 nM for 72 h,"induced morphological alterations, including shrinkage"
same,Parasitemia levels along the incubation period,"[10]; 10 or 50 nM, 1–72 h",not increased
same,Parasite life cycle stage under exposure,"[10]; 10 or 50 nM, 1–72 h of incubation, ring-stage synchronized",blocked in the ring stage
same,Parasite growth after removal of compound (washed group),"[10]; 72 h exposure to 10 or 50 nM, then further 72 h without compound (up to 144 h)",not restored
"CCN(CC)CCCC(C)Nc1ccnc2cc(Cl)ccc12 (stereo not drawn) [Chloroquine, Chloroquine diphosphate, reference compound]",IC50,"[1]; 3D7, 72 h",26.2 ± 3.66 nM
same,IC50,"[2]; K1, 72 h",740 ± 95.7 nM
